Target: T1, FXR (Homo sapiens, UniProt Q96RI1)
T1 sequence (Q96RI1 1-486): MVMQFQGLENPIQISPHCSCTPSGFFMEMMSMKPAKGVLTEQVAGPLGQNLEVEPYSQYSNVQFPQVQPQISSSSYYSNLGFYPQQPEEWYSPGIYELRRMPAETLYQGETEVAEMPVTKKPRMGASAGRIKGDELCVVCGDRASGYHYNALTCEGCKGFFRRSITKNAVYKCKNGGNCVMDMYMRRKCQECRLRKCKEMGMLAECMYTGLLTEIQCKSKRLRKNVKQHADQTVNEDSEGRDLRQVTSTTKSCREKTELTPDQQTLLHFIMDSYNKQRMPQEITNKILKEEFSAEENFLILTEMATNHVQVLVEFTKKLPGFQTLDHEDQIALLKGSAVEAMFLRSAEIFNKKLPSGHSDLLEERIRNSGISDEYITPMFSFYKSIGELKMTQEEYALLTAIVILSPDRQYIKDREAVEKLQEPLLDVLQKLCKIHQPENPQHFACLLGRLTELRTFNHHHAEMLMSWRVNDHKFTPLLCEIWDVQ
Assay: Selectivity: nuclear hormone receptor FXR

SMILES: CC(=O)N1CCC(C(C)N(C(=O)COc2cccc3sc4nc(C)cn4c23)c2ccc(F)cc2)CC1 (stereo not shown) [compound 18]
- EC50: > 125 µM

Reference: paper PMC4551797 (PLoS ONE, 2015)
